# Experimental data: ChEMBL document CHEMBL1201862, “PubChem BioAssay data set” (2004)
# Activity calls are given as the source filed them.
# What was measured:
# [1] = molecular target: G-protein coupled receptor 55 (Homo sapiens, UniProt Q9Y2T6); assay: inhibition of LPI-stimulated GPR55 beta-arrestin translocation – imaging, U2OS, beta-arrestin-GFP, LPI agonist, primary screen (AID 2013); assay type: functional;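 further: antagonist potency measured as reduced agonist-driven arrestin aggregation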
# Chain of G-protein coupled receptor 55 (Q9Y2T6 whole entry): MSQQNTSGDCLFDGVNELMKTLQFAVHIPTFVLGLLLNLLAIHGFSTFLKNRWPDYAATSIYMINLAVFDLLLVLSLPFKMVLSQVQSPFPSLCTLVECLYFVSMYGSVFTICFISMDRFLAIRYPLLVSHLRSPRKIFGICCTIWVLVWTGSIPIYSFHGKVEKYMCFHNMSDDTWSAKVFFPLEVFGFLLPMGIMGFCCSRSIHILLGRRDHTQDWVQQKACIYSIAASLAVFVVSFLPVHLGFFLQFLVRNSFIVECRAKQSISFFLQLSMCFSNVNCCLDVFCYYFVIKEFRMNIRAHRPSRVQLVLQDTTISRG
# Beta-galactosidase = Beta-galactosidase (Escherichia coli, UniProt Q8VNN2); assay: detection-enzyme interference by beta-gal modulators – biochemical, E. coli enzyme, set 3, artefact control for CCR6 antagonist project, dose response (AID 504712); assay type: functional
# Chain of Beta-galactosidase (Q8VNN2 whole entry): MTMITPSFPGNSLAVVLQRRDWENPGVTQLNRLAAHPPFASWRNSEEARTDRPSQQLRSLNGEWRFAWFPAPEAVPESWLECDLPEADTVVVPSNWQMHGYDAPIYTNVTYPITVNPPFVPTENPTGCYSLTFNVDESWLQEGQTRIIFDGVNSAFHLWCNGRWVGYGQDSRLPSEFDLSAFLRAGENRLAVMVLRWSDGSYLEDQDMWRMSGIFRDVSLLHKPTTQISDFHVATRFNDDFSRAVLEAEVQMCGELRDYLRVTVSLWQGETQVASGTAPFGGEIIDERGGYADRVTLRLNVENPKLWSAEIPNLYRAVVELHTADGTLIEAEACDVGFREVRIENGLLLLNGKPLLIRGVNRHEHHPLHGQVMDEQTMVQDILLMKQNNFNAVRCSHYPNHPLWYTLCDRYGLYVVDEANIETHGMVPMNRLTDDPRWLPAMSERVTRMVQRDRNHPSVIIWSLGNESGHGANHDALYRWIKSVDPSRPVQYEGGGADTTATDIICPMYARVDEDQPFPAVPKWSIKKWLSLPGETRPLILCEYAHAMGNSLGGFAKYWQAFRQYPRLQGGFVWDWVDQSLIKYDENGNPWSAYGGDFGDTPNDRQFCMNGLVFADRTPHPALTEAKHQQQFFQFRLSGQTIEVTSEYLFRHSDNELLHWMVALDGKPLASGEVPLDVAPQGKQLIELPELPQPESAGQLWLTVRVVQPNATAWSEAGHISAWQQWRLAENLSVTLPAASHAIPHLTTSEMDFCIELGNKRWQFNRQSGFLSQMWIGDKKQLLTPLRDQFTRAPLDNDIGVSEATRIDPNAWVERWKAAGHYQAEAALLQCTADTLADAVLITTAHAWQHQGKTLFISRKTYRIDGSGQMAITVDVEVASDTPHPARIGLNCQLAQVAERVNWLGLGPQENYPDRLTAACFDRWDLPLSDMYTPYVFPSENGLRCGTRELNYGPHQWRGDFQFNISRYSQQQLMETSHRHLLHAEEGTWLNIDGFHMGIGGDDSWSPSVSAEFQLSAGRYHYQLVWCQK
# [2] = molecular target: T1, Ubiquitin-conjugating enzyme E2 N (Homo sapiens, UniProt P61088); assay type: functional
# T1 sequence (P61088 whole entry): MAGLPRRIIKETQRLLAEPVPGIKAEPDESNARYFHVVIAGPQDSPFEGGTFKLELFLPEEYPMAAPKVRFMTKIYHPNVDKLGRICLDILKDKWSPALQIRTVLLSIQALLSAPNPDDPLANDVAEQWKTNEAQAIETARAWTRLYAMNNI
# [3] = molecular target: T1, Ubiquitin-conjugating enzyme E2 N; assay type: functional; remark: listed apart in the source
# Bcl-2-related protein A1 = molecular target: T2, Bcl-2-related protein A1 (Mus musculus, UniProt Q07440); assay type: functional;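 further: confirmatory dose–response counterscreen on Bfl-1, used to check hits from a UBC13 polyubiquitin inhibitor campaign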
# T2 sequence (Q07440 whole entry): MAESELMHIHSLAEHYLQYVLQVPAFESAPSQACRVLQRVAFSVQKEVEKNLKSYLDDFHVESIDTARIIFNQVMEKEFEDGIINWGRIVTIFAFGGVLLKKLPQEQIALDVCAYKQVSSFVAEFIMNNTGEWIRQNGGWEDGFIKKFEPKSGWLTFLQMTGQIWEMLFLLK
# Large T antigen = Large T antigen (Simian virus 40, UniProt P03070); assay type: functional, Betapolyomavirus macacae;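 further: Confirmatory-stage PubChem screen for compounds that inhibit SV40 T antigen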
# Chain of Large T antigen (P03070 whole entry): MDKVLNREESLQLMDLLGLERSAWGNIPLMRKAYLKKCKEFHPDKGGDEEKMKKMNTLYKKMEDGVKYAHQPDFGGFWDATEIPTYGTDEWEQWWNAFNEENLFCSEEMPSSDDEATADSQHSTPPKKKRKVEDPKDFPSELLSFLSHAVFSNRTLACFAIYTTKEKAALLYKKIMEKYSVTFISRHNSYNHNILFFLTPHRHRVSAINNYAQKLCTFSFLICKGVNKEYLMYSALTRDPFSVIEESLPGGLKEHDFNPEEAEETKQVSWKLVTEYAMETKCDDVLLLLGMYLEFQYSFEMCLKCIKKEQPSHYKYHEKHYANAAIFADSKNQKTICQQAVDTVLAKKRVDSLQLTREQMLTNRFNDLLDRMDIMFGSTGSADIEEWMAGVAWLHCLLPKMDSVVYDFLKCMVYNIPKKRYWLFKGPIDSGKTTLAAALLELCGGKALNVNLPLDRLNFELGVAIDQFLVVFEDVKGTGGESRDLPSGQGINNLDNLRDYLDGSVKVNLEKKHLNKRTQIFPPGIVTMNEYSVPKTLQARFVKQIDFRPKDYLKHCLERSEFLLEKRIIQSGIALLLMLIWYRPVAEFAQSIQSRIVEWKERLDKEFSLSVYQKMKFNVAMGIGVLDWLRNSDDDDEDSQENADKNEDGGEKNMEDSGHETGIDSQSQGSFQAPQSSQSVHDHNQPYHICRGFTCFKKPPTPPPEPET
# Aminopeptidase N = molecular target: T3, Aminopeptidase N (Plasmodium falciparum FcB1/Columbia, UniProt O96935); assay: malaria alanyl aminopeptidase activity blockers – biochemical, fluorogenic H-Leu-NHMec substrate, 1536-well (AID 1445); parameters: species or system Plasmodium falciparum 3D7, 3D7
# T3 sequence (O96935 whole entry): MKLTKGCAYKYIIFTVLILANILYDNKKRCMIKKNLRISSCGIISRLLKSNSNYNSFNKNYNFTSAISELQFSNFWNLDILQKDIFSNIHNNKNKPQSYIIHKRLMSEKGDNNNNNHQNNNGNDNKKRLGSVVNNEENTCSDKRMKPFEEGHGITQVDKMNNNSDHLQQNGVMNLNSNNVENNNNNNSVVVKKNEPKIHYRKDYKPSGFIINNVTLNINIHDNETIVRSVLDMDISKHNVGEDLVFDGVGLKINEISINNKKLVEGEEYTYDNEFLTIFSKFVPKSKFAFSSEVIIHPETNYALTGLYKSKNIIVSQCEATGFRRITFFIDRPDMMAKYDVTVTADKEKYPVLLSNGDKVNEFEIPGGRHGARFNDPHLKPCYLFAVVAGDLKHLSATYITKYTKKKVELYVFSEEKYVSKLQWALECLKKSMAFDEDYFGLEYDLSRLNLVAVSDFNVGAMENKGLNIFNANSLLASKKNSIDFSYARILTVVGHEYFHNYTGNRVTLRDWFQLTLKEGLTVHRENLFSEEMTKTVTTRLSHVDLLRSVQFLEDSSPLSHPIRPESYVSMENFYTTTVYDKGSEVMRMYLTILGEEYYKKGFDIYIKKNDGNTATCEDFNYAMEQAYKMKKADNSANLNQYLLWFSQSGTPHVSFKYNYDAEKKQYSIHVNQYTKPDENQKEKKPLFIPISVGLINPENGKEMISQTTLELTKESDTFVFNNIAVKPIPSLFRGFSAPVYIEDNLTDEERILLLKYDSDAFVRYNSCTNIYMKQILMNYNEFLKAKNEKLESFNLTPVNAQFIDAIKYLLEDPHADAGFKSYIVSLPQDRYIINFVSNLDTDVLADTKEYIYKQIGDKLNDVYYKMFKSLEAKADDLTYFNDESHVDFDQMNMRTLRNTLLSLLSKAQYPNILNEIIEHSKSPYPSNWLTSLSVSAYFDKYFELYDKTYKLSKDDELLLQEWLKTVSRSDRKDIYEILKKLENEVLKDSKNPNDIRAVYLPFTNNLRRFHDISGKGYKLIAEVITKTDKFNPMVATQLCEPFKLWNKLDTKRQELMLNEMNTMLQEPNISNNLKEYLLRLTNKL
# [4] = molecular target: T4, DNA dC->dU-editing enzyme APOBEC-3G (Homo sapiens, UniProt Q9HC16); assay type: functional
# T4 sequence (Q9HC16 whole entry): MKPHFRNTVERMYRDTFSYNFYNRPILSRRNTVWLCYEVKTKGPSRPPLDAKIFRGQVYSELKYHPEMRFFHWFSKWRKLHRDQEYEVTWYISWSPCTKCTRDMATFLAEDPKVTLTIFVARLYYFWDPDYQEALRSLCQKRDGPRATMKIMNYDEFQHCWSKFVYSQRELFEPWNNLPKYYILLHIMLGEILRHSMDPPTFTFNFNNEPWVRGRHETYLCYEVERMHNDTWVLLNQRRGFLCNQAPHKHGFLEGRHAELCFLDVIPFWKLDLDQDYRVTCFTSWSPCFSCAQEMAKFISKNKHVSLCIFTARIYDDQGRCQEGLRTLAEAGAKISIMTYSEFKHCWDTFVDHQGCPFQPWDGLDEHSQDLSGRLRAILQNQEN
# [5] = molecular target: T5, DNA dC->dU-editing enzyme APOBEC-3A (Homo sapiens, UniProt P31941); assay: Dose Response confirmation of small molecule APOBEC3A DNA Deaminase Inhibitors via a fluorescence-based single-stranded DNA deaminase assay. [Related pubchem assays (depositor defined):AID493011, AID493024]; assay type: functional
# T5 sequence (P31941 whole entry): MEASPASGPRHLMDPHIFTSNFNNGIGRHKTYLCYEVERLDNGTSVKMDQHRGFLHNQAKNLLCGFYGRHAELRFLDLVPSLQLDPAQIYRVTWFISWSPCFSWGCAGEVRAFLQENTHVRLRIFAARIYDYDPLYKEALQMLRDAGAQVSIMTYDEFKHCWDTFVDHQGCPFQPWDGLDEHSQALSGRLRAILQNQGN
# [6] = molecular target: Glyceraldehyde-3-phosphate dehydrogenase (Homo sapiens, UniProt P04406)
# Chain of Glyceraldehyde-3-phosphate dehydrogenase (P04406 whole entry): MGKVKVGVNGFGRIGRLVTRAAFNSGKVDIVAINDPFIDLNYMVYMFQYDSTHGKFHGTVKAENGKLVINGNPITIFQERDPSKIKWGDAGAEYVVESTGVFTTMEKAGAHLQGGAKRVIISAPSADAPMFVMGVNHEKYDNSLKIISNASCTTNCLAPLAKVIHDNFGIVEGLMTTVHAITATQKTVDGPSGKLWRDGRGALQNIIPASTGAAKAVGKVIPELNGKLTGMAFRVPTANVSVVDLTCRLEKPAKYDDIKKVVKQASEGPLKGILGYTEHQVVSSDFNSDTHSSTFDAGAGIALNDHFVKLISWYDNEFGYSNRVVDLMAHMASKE
# [7] = molecular target: T6, Alkaline phosphatase, tissue-nonspecific isozyme (Homo sapiens, UniProt P05186); assay: potency against alkaline phosphatase TNAP – biochemical, luminescent, dose response, SAR follow-up (AID 1056)
# T6 sequence (P05186 whole entry): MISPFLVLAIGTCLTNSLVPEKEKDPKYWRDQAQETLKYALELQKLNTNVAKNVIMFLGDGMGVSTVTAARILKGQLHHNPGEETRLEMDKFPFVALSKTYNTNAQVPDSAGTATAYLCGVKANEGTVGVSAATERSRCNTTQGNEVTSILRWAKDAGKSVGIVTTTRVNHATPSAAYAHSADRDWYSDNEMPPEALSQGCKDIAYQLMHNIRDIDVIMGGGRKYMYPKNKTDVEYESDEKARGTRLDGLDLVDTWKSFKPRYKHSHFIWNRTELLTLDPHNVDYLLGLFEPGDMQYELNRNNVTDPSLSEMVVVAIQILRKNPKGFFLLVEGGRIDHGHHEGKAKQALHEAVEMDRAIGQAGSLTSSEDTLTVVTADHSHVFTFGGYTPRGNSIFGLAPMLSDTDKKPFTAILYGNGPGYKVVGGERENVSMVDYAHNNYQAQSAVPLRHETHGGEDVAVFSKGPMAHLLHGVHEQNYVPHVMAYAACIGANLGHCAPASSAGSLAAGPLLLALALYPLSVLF
# HT-1080 = assay: HT1080 cell viability loss – fluorescence readout (AID 620); assay type: functional, cell-based; conditions: Homo sapiens
# [8] = molecular target: T7, Heat shock factor protein 1 (Mus musculus, UniProt P38532); assay: enhancement of HSF1-driven luciferase signal – cell-based, NIH3T3, luminescence, dose retest, confirmation (AID 435004); assay type: functional;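 further: stress induced by proteasome inhibitor MG132 added 30 min after compound; luciferase reporter driven by HSF1 response element in NIH3T3 cells; actives raise luminescence as potentiators of the MG132 stress response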
# T7 sequence (P38532 whole entry): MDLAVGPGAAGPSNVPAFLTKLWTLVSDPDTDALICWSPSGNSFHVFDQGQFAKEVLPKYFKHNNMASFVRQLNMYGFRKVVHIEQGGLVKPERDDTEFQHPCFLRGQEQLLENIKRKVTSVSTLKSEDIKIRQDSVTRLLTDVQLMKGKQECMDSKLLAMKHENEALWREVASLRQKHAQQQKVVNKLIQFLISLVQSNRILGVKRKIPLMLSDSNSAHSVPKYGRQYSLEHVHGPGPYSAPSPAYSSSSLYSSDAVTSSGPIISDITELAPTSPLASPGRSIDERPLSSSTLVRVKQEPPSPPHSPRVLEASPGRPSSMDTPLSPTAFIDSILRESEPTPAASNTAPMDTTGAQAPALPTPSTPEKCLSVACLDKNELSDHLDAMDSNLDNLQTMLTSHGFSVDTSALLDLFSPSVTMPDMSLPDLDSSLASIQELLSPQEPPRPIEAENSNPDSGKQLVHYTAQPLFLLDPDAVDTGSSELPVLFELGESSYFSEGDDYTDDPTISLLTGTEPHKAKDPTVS
# Protein skinhead-1 = molecular target: T8, Protein skinhead-1 (Caenorhabditis elegans, UniProt P34707); assay type: functional
# T8 sequence (P34707 whole entry): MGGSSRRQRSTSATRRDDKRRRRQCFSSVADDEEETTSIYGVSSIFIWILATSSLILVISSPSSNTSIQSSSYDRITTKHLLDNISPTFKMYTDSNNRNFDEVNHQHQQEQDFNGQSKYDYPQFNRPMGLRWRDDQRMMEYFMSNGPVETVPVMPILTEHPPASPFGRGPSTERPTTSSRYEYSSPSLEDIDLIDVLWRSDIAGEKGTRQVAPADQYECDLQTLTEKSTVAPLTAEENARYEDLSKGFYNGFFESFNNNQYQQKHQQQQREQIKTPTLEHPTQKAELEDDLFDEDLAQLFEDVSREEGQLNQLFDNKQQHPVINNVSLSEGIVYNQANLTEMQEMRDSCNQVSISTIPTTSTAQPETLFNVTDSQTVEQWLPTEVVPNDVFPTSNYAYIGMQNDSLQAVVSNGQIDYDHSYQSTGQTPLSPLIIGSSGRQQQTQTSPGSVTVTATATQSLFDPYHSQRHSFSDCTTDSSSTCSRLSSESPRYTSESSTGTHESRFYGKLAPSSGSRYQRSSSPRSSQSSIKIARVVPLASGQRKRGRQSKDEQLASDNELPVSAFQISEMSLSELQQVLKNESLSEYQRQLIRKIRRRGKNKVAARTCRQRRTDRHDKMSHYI
# [9] = molecular target: Luciferin 4-monooxygenase (Photinus pyralis, UniProt P08659); assay: Counter Screen for Luciferase-based Assay Positives. [Related pubchem assays: 620, 618, 411 ]
# Chain of Luciferin 4-monooxygenase (P08659 whole entry): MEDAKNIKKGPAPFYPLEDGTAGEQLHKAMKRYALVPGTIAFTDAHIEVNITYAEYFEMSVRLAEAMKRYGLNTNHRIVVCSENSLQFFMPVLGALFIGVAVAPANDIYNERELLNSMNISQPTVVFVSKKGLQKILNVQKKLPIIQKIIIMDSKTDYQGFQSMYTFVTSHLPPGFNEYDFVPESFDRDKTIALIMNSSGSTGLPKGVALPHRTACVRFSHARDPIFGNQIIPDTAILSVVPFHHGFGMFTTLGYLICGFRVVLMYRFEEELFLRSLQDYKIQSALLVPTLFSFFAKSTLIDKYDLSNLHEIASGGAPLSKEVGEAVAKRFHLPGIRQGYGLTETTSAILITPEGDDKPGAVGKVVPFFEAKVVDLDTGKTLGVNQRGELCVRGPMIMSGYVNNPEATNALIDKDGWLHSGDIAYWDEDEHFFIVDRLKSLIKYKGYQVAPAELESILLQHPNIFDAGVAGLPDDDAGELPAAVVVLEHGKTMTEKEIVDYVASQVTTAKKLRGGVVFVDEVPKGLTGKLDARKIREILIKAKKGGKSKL
# Genome polyprotein = Genome polyprotein (dengue virus type 2, UniProt P29990); assay: flavivirus cap methylation enzyme inhibition – biochemical, confirmation dose response, primary screen (AID 588689); assay type: functional
# Chain of Genome polyprotein (P29990 2492-3391 limits assumed): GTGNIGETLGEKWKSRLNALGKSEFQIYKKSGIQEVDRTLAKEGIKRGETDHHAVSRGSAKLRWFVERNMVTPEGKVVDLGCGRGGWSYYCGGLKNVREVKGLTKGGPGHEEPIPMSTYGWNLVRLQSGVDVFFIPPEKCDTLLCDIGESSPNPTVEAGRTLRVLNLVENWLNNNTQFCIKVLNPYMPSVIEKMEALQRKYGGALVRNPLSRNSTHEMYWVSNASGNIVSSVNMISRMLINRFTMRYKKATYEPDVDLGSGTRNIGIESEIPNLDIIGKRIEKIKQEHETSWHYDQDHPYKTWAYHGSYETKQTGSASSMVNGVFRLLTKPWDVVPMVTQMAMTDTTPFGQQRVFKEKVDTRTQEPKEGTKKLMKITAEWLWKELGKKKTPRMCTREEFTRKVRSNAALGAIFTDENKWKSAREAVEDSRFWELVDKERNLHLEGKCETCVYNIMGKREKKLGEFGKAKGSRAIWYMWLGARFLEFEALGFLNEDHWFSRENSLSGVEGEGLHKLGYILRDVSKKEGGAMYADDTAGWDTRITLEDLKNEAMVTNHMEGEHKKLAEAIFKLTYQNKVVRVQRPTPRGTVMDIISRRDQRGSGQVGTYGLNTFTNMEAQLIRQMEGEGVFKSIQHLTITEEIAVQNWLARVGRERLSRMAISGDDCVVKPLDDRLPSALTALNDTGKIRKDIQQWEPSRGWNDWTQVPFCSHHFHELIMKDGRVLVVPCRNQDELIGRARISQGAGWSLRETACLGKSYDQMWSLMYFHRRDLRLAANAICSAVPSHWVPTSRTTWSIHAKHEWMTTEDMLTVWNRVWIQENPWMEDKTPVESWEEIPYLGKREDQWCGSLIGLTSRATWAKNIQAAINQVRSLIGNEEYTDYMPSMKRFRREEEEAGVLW
# [10] = Trypanosoma cruzi growth suppression in host cells – NIH3T3 host cells, beta-gal luminescence, confirmation (AID 2044); assay type: functional, cell-based;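 further: intracellular parasites grown in NIH/3T3 mouse fibroblasts as host cells; luminescent beta-galactosidase reporter signal from transgenic T. cruzi replicating inside host cells; inhibitors lower the luminescence signal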
# [11] = NIH3T3 cell viability loss – ATP luminescence, mouse fibroblasts, counter-screen, dose response (AID 2010); assay type: functional, cell-based;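 further: cells exposed to compound for about 90 hours before reading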
# [12] = THP-1 cell cytotoxicity, dose response, cytotoxicity control for non-replicating M. tuberculosis project (AID 489025); assay type: functional
# [13] = molecular target: T5, DNA dC->dU-editing enzyme APOBEC-3A; assay: A3A deaminase inhibition for selectivity – biochemical, dose response (AID 504722); assay type: functional
# [14] = molecular target: T4, DNA dC->dU-editing enzyme APOBEC-3G; assay: Dose Response confirmation of small molecule APOBEC3G DNA Deaminase Inhibitors via a fluorescence-based single-stranded DNA deaminase assay. [Related pubchem assays (depositor defined):AID493012, AID493028]; assay type: functional
structure (smiles),measurement,setting,value
O=C(Nc1ccccc1Cl)c1ccccc1Oc1ccc(C(F)(F)F)cc1[N+](=O)[O-],IC50,[1],3.31 µM (active)
same,IC50,Beta-galactosidase,> 66.6 µM (inactive)
CC(=O)c1ccc(OCC(O)CN2CCN(CCN3C(=O)c4cccc5cccc(c45)C3=O)CC2)cc1 (stereo unspecified),IC50,[2],4.17 µM (active)
same,IC50,[3],4.79 µM (active)
same,IC50,Bcl-2-related protein A1,> 20 µM (inactive)
O=C(O)c1cc(S(=O)(=O)Nc2ccc3oc(=O)sc3c2)ccc1O,IC50,Large T antigen,33.3 µM (active)
same,IC50,Aminopeptidase N,70.9 µM (active)
COc1ccc(-c2nnc(SCC(=O)Nc3cc(S(=O)(=O)N4CCCCC4)ccc3Cl)n2N)cc1,IC50,Aminopeptidase N,39.3 µM (active)
COc1ccc(C(CC(=O)N2CCOCC2)c2c(OC)cc(OC)c3c(-c4ccccc4)cc(=O)oc23)cc1 (stereo unspecified),IC50,[4],50.9 µM (active)
same,IC50,[5],17 µM (active)
COc1ccc(Cc2nnc(N3C(=O)c4ccccc4C3=O)[nH]2)cc1,IC50,[6],> 100 µM (not active)
same,IC50,[7],> 100 µM (inactive)
CCc1cccc(NC(=O)C[n+]2c3n(c4ccc(C(F)(F)F)cc42)CCCCC3)c1,IC50,[4],5.22 µM (active)
same,IC50,[5],2.69 µM (active)
CN1CCN(C(=O)CCN2C(=O)/C(=C/c3ccccc3Cl)SC2=S)CC1,IC50,[2],> 20 µM (inactive)
same,IC50,[3],17.8 µM (active)
same,IC50,Bcl-2-related protein A1,> 20 µM (inactive)
CCCc1cc(C(=O)Nc2nccs2)cs1,EC50,HT-1080,> 50 µM (not active)
same,EC50,[8],> 260 µM (inconclusive)
same,IC50,Protein skinhead-1,> 100 µM (inactive)
same,EC50,[9],< 0.2 µM (active)
O=C(COc1ccccc1/C=C\c1nc(O)nc(O)c1[N+](=O)[O-])Nc1ccccc1,IC50,Genome polyprotein,39.9 µM (active)
same,EC50,[10],> 60 µM (not active)
same,IC50,Aminopeptidase N,42.9 µM (active)
same,EC50,[11],> 60 µM (not active)
COc1ccc(O)c(C(=O)CC(=O)c2ccc(F)cc2)c1,EC50,HT-1080,> 50 µM (not active)
same,CC50,[12],> 40 µM (active)
same,EC50,[9],0.35 µM (active)
Cc1ccc(NS(=O)(=O)c2ccc3[nH]c(=O)c(=O)[nH]c3c2)cc1Cl,IC50,Aminopeptidase N,41.9 µM (active)
CC(=O)Nc1nc(SCCCc2ccccc2)n[nH]1,IC50,[6],> 100 µM (not active)
same,IC50,[7],6 µM (active)
COc1ccccc1NC(=O)CN1CCC(n2nnc3cc(F)ccc32)CC1,IC50,[2],17.8 µM (active)
same,IC50,[3],15.4 µM (active)
same,IC50,Bcl-2-related protein A1,> 20 µM (inactive)
COc1cc(C2Nn3c(nnc3-c3ccccc3OC)S2)ccc1O (stereo unspecified),IC50,[13],> 100 µM (inactive)
same,IC50,[14],3.57 µM (active)
CCN(CC)C(=O)c1ncn(C)c1C(=O)N(CC)CC,IC50,[4],3.23 µM (active)
same,IC50,[5],3.51 µM (active)
O=[N+]([O-])c1ccc(/C=N/n2c(S)nnc2-c2cccnc2)cc1,IC50,[13],> 100 µM (inactive)
same,IC50,[14],2.3 µM (active)
O=C1OC(c2ccc(O)cc2)(c2ccc(O)cc2)c2ccccc21 [PHENOLPHTHALEIN],IC50,[1],6.67 µM (active)
